Reference: article PMC10197068 (Bioconjugate Chemistry, 2023)
Values joined by “and” are separate entries in the source; they are usually repeats but may differ in a detail not shown here. Equal entries are not always repeated.

Tests used:
[1] = test system: G1 (Na+) monomeric HTelo G4 DNA, AGGG(TTAGGG)3; assay: CD melting with G1 (Na+); type: binding, human; conditions: CD melting at 295 nm, 25 to 95 °C at 2 °C/min; 100 mM NaCl, 10 mM Li cacodylate, pH 7.3; [G4 unit] 6 μM, [salphen unit] 12 μM
Experimental: (§1) Next, the DNA binding properties of the monomeric and dimeric compounds were studied. […] The following notation is used: […] The CD melting experiments were conducted solely with Na^+ stabilized DNA, which forms an antiparallel topology in solution (cf., in the presence of K^+ a mixture of topologies is observed). During the assay the temperature was increased from 25 to 95 °C upon which the intensity of signals with negative ellipticity at ca. 265 nm and positive ellipticity at ca. 295 (characteristic of an antiparallel G4 structure) decreased-see Figure 4a. This indicates the expected unfolding of the G4 DNA structure as the temperature increases. The changes in intensity were subsequently used to produce the corresponding melting curves (Figure 4b) for each sequence in the absence and presence of the different compounds under study. From these curves, the ΔTm values for the different sequences and compounds were determined, and the results are summarized in Figure 4c (see Supplementary Table 1 for values). […] G-Quadruplex oligonucleotides were purchased from Eurogentec (Belgium), and CT-DNA was purchased from Sigma-Aldrich. […] Prior to use, the DNA stock solutions were annealed by heating at 95 °C for 5 min and then cooling to room temperature overnight. Experiments were carried out on a Jasco J-810 spectrophotometer using a 1 cm quartz cuvette. Temperature was controlled using a Peltier module. The signal at 295 nm was monitored as temperature was increased for 25 to 95 °C at a rate of 2 °C/min. CD melting experiments were carried out with the appropriate G4 DNA (100 mM NaCl, 10 mM Li cacodylate, pH 7.3). Sample preparation was carried out by combining stock solutions of ligand and DNA in the appropriate buffer. […] Melting temperatures were obtained by curve fitting in Graphpad Prism 8. The data was normalized and fitted to a variable slope Hill equation, and the melting temperature was defined at the temperature at which y = 0.5.

[2] = test system: G2T1 (Na+) dimeric HTelo G4 DNA, AGGG(TTAGGG)7; assay: CD melting with G2T1 (Na+); type: binding, human; conditions: for ΔTm G2T1 (Na+): CD melting at 295 nm, 25 to 95 °C at 2 °C/min, 100 mM NaCl, 10 mM Li cacodylate, pH 7.3, [G4 unit] 6 μM (3 μM dimeric sequence), [salphen unit] 12 μM
Experimental: as §1

[3] = test system: G2T6 (Na+) dimeric HTelo G4 DNA, AGGG(TTAGGG)3(TTA)5(TTAGGG)4; assay: CD melting with G2T6 (Na+); type: binding, human; conditions: for ΔTm G2T6 (Na+): CD melting at 295 nm, 25 to 95 °C at 2 °C/min, 100 mM NaCl, 10 mM Li cacodylate, pH 7.3, [G4 unit] 6 μM (3 μM dimeric sequence), [salphen unit] 12 μM
Experimental: as §1

[4] = test system: G1 (K+) monomeric HTelo G4 DNA; assay: Emission titration with G1 (K+); type: binding, human; conditions: Table S2, unit not given, ligand 2 μM, 100 mM KCl, 10 mM Li cacodylate, pH 7.3, exc 440 nm, em 590 nm, triplicate
Experimental: (§2) Next, emission titrations were carried out with the emissive Pt^II compounds M2 and D3–8 and G4/duplex DNA to obtain association constants. Both Na^+ and K^+ stabilized monomeric and dimeric G4 DNA were investigated. Additionally, titrations were carried out with CT-DNA to evaluate the selectivity for G4 versus duplex DNA. Figure 5 summarizes the obtained results (see Figures S24–S37 and Table S2 for a full set of titration data). First discussed are the experiments conducted in Na^+ buffer, in which the G4 topology formed is antiparallel.[41] […] As discussed previously, this could potentially be caused by a “sandwiched” binding mode in which the metal-salphen complex sits between two G-quadruplex units. For dimeric metal-salphen complexes D3–8, however, there are several differences when compared to the CD melting studies. […] Upon increasing the linker length to a two-amino-acid sequence (RR and KK for compounds D4 and D5, respectively), larger Ka values were obtained with minimal change to the pattern of selectivity. […] Increasing the linker length to an eight-amino-acid sequence (RRRRRRRR) led to a similar stabilization of G2T6, while G1 stabilization increased.
(§3) G-Quadruplex oligonucleotides were purchased from Eurogentec (Belgium), and CT-DNA was purchased from Sigma-Aldrich. Stock solutions were prepared via dilution in the appropriate buffers to concentrations of 300–400 μM determined by UV–vis measurements in which increasing amounts of DNA were added to a cuvette and the absorbance at 260 nm recorded using an Agilent Cary UV 60 spectrometer. Prior to use, the DNA stock solutions were annealed by heating at 95 °C for 5 min and then cooling to room temperature overnight.
(§4) Experiments were carried out using a BMG Clariostar Microplate reader with Greiner Bio-One half-volume (100 μL/well) plates. Excitation was carried out at 440 nm and recorded from 500 to 700 nm in addition to a matrix scan at 590 nm. Titrations were carried out using G1, G2T1, and G2T6 (Na^+) G4 DNA (100 mM NaCl, 10 mM Li cacodylate, pH 7.3); G1, G2T1, and G2T6 (K^+) G4 DNA (100 mM KCl, 10 mM Li cacodylate, pH 7.3); and CT-DNA (100 mM KCl, 10 mM Li cacodylate, pH 7.3). Ligand concentration was kept constant at 2 μM, and the following DNA equivalents were tested: 0, 0.1, 0.2, 0.3, 0.4, 0.5, 0.75, 1, 1.5, 2, 3, and 5 (for CT-DNA 10× base pair equivalents were used, i.e., 1 to 50 BPE). Sample preparation was carried out by preparing stock solutions of double concentration ligand (4 μM) and DNA in the appropriate buffer, before 50 μL of each was added to the appropriate well and mixed. Experiments were conducted in triplicate and binding constants were obtained by curve fitting in Graphpad Prism 8 using eq 1.[46] [drawing 1] 1
(§5) Fluorescence response (y) was fitted against DNA concentration (x); R is the machine response, K is the association constant of ligand and DNA, L is the concentration of ligand, and n is the number of binding sites per DNA. The values of L and n were varied so that that the L was equal to the number of salphen units and n was equal to the number of G4 faces per DNA. The matrix scan results were used to plot the titration curves and 500–700 nm scan results were used to confirm that expected curve shapes and shifts were observed.

[5] = test system: G2T1 (K+) dimeric HTelo G4 DNA; assay: Emission titration with G2T1 (K+); type: binding, human; conditions: Table S2, unit not given, ligand 2 μM, 100 mM KCl, 10 mM Li cacodylate, pH 7.3, exc 440 nm, em 590 nm, triplicate
Experimental: as §2, §3, §4, §5

[6] = test system: G2T6 (K+) dimeric HTelo G4 DNA; assay: Emission titration with G2T6 (K+); type: binding, human; conditions: Table S2, unit not given, ligand 2 μM, 100 mM KCl, 10 mM Li cacodylate, pH 7.3, exc 440 nm, em 590 nm, triplicate
Experimental: as §2, §3, §4, §5

[7] = test system: G1 (Na+) monomeric HTelo G4 DNA; assay: Emission titration with G1 (Na+); type: binding, human; conditions: Table S2, unit not given, ligand 2 μM, 100 mM NaCl, 10 mM Li cacodylate, pH 7.3, exc 440 nm, em 590 nm, triplicate
Experimental: as §2, §3, §4, §5

[8] = test system: G2T1 (Na+) dimeric HTelo G4 DNA; assay: Emission titration with G2T1 (Na+); type: binding, human; conditions: Table S2, unit not given, ligand 2 μM, 100 mM NaCl, 10 mM Li cacodylate, pH 7.3, exc 440 nm, em 590 nm, triplicate
Experimental: as §2, §3, §4, §5

[9] = test system: G2T6 (Na+) dimeric HTelo G4 DNA; assay: Emission titration with G2T6 (Na+); type: binding, human; conditions: Table S2, unit not given, ligand 2 μM, 100 mM NaCl, 10 mM Li cacodylate, pH 7.3, exc 440 nm, em 590 nm, triplicate
Experimental: as §2, §3, §4, §5

[10] = test system: CT-DNA (duplex DNA); assay: Emission titration with duplex DNA; type: binding
Experimental: Next, emission titrations were carried out with the emissive Pt^II compounds M2 and D3–8 and G4/duplex DNA to obtain association constants. Both Na^+ and K^+ stabilized monomeric and dimeric G4 DNA were investigated. Additionally, titrations were carried out with CT-DNA to evaluate the selectivity for G4 versus duplex DNA. Figure 5 summarizes the obtained results (see Figures S24–S37 and Table S2 for a full set of titration data). First discussed are the experiments conducted in Na^+ buffer, in which the G4 topology formed is antiparallel.[41] […] As discussed previously, this could potentially be caused by a “sandwiched” binding mode in which the metal-salphen complex sits between two G-quadruplex units. For dimeric metal-salphen complexes D3–8, however, there are several differences when compared to the CD melting studies. […] Upon increasing the linker length to a two-amino-acid sequence (RR and KK for compounds D4 and D5, respectively), larger Ka values were obtained with minimal change to the pattern of selectivity. […] Increasing the linker length to an eight-amino-acid sequence (RRRRRRRR) led to a similar stabilization of G2T6, while G1 stabilization increased. […]
G-Quadruplex oligonucleotides were purchased from Eurogentec (Belgium), and CT-DNA was purchased from Sigma-Aldrich. Stock solutions were prepared via dilution in the appropriate buffers to concentrations of 300–400 μM determined by UV–vis measurements in which increasing amounts of DNA were added to a cuvette and the absorbance at 260 nm recorded using an Agilent Cary UV 60 spectrometer. […]
Experiments were carried out using a BMG Clariostar Microplate reader with Greiner Bio-One half-volume (100 μL/well) plates. Excitation was carried out at 440 nm and recorded from 500 to 700 nm in addition to a matrix scan at 590 nm. […]
Fluorescence response (y) was fitted against DNA concentration (x); R is the machine response, K is the association constant of ligand and DNA, L is the concentration of ligand, and n is the number of binding sites per DNA. […]

Compound | ΔTm G1 (Na+) [1] | ΔTm G2T1 (Na+) [2] | ΔTm G2T6 (Na+) [3] | Association constant G1 (K+), mean [4] | Association constant G2T1 (K+), mean [5] | Association constant G2T6 (K+), mean [6] | Association constant G1 (Na+), mean [7] | Association constant G2T1 (Na+), mean [8] | Association constant G2T6 (Na+), mean [9] | Ka for duplex DNA ([10]; CT-DNA up to 50 base pair equivalents, 100 mM KCl, 10 mM Li cacodylate, pH 7.3, ligand 2 μM) | fold reduction in duplex DNA binding ([10]; compared with monomeric complex M2) [fold] | fold increase in stabilization of G2T1 ([2]; ΔTm of D7 relative to D4) [fold] | fold increase in stabilization of G2T6 ([3]; ΔTm of D7 relative to D3) [fold]
C[N+](C)(C)CCOc1ccc2c(c1)[O][Ni][O]c1cc(OCC[N+](C)(C)C)ccc1C=Nc1cc(C(=O)NCc3cn(CCOCCOCCn4cc(CNC(=O)c5ccc6c(c5)N=Cc5ccc(OCC[N+](C)(C)C)cc5[O][Ni][O]c5cc(OCC[N+](C)(C)C)ccc5C=N6)nn4)nn3)ccc1N=C2.F[P-](F)(F)(F)(F)F.F[P-](F)(F)(F)(F)F.F[P-](F)(F)(F)(F)F.F[P-](F)(F)(F)(F)F [Compound D2] | 2.66 °C | 13.80 °C | 11.14 °C | – | – | – | – | – | – | – | – | – | –
C[N+](C)(C)CCOc1ccc2c(c1)[O][Pt][O]c1cc(OCC[N+](C)(C)C)ccc1C=Nc1cc(C(=O)NCc3cn(CCOCCn4cc(CNC(=O)c5ccc6c(c5)N=Cc5ccc(OCC[N+](C)(C)C)cc5[O][Pt][O]c5cc(OCC[N+](C)(C)C)ccc5C=N6)nn4)nn3)ccc1N=C2 [Compound D3] | 3.02 °C and 3.0 °C | 15.29 °C | 6.43 °C and 6.4 °C | 0.17 | 0.13 | 0.16 | 0.17 | 0.24 | 0.19 | 5.0 × 10^3 M^–1 | 10 | – | –
C[N+](C)(C)CCOc1ccc2c(c1)[O][Ni][O]c1cc(OCC[N+](C)(C)C)ccc1C=Nc1ccccc1N=C2 [Compound M1, reference compound] | 12.26 °C | 16.58 °C and 16 °C | 18.77 °C | – | – | – | – | – | – | – | – | – | –
RKKR [Compound D7] | 2.6 °C | 16.33 °C and 16.3 °C | 13.81 °C and 13.8 °C | 0.39 | 0.18 | 0.42 | 0.21 | 0.36 | 0.69 | – | – | 1.1 | 2.1
RRRR [Compound D6] | 3.49 °C | 14.83 °C | 13.27 °C | 0.28 | 0.18 | 0.52 | 0.07 | 0.29 | 0.99 | – | – | – | –
